Experiment: Skin moisture after application of moisturizing compositions (Corneometer)
Assay type: in vivo
Conditions: applied to skin
Procedure: Glycerol monostearate (GMS) cream moisturizing compositions containing 2% glycerin (Sample 1), 1% sodium erythorbate (Sample 2), 1% δ-gluconolactone (Sample 3), or 2% of a biodegradation prevention mixture containing 75% (by weight) sodium benzoate and 25% (by weight) sodium erythorbate were tested as follows.
The GMS cream was prepared as follows. Polyoxyethylene glyceryl monostearate, glyceryl monostearate, cetearyl alcohol, and myristyl propionate were mixed and heated to 60° C. in a first container. In four separate containers, glycerin, sodium erythorbate, δ-gluconolactone, or the aforementioned biodegradation prevention mixture were mixed with sterile deionized water and heated to 60° C. The solution in the first container was poured into each container containing glycerin, sodium erythorbate, δ-gluconolactone, or the biodegradation prevention mixture to produce the desired concentrations, e.g., 2% glycerin (w/w) (Sample 1), 1% sodium erythorbate (w/w) (Sample 2), 1% δ-gluconolactone (w/w) (Sample 3), or 2% biodegradation prevention mixture (w/w) (Sample 4). The containers were maintained at 60° C. for 10 minutes, and then allowed to cool. The pH of the solution was adjusted to pH 7 with sodium hydroxide to yield the GMS cream.
The moisturizing compositions were applied once to skin and skin moisture measurements were taken over a 7 day period following administration. […]

## O=C1O[C@H]([C@H](O)CO)C([O-])=C1O.[Na+] [sodium erythorbate]
  Skin moisturization compared with known moisturizers such as glycerin: moisturize skin more effectively than many known moisturizers

## O=C1O[C@H](CO)[C@@H](O)[C@H](O)[C@H]1O [δ-gluconolactone]
  Skin moisturization compared with known moisturizers such as glycerin: moisturize skin more effectively than many known moisturizers

Source: patent publication US20060093634A1, “Personal care compositions and concentrates for making the same” (Lonza Inc., priority 2004, published 2006)
